Tested on: 186277-243-T-J2-PDC complex spheroid growth, % test/control
Test: Anticancer human tumor 186277-243-T-J2-PDC patient-derived colon adenocarcinoma cell line growth inhibition [Asc]
Conditions: for IC50: curve of first compound; for viability, T/C: stronger effect = lower value; active = viability on the fitted dose curve at most 10% of control; inactive = the rest
Outline: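 Stromal components (HUVEC and hMSC) are co-assembled with the cancer cells into multicellular spheroids. Drugs are then added singly or paired, at concentrations falling by half-log increments from a clinically achievable maximum, capped at 10 microM without known Cmax.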

[1] = second compound 0.1 µM, first compound 0.0316 µM
[2] = second compound 0.1 µM, first compound 0.1 µM
[3] = second compound 0.1 µM, first compound 0.316 µM
[4] = second compound 0.1 µM, first compound 1 µM
[5] = second compound 0.316 µM, first compound 0.0316 µM
[6] = second compound 0.316 µM, first compound 0.1 µM
[7] = second compound 0.316 µM, first compound 0.316 µM
[8] = second compound 0.316 µM, first compound 1 µM
[9] = second compound 1 µM, first compound 0.0316 µM
[10] = second compound 1 µM, first compound 0.1 µM
[11] = second compound 1 µM, first compound 0.316 µM
[12] = second compound 1 µM, first compound 1 µM
[13] = second compound 3.16 µM, first compound 0.0316 µM
[14] = second compound 3.16 µM, first compound 0.1 µM
[15] = second compound 3.16 µM, first compound 0.316 µM
[16] = second compound 3.16 µM, first compound 1 µM
[17] = second compound 10 µM, first compound 0.0316 µM
[18] = second compound 10 µM, first compound 0.1 µM
[19] = second compound 10 µM, first compound 0.316 µM
[20] = second compound 10 µM, first compound 1 µM
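Also: spheroids exposed to agents for 7 days.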
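For viability, T/C in this document: 100% = DMSO vehicle control wells.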

C#Cc1c(F)ccc2cc(O)cc(-c3ncc4c(N5CC6CCC(C5)N6)nc(OCC56CCCN5CC(F)C6)nc4c3F)c12 (stereo not given) + Cc1c(S(C)(=O)=O)c(-c2cc(F)cc(N3CCN(c4ccc(NS(=O)(=O)c5ccc(NC(CCN6CCC(C(=O)OCCCP(=O)(O)O)CC6)CSc6ccccc6)c(S(=O)(=O)C(F)(F)F)c5)cc4)CC3)c2)c(-c2ccc(Cl)cc2)n1C(C)C
114 nM: IC50 (second compound 1 µM)
91.9 nM: IC50 (second compound 3.16 µM)
127 nM: IC50 (second compound 0.316 µM)
inactive: viability, T/C [1] 91.5% | viability, T/C [2] 69.7% | viability, T/C [3] 30.2% | viability, T/C [4] 11.3% | viability, T/C [5] 115% | viability, T/C [6] 56.9% | viability, T/C [7] 23.6% | viability, T/C [9] 86.3% | viability, T/C [10] 54% | viability, T/C [11] 18.7% | viability, T/C [13] 87% | viability, T/C [14] 47.1% | viability, T/C [17] 76.1% | viability, T/C [18] 46.5%
87.3 nM: IC50 (second compound 10 µM)
active: viability, T/C (second compound 0.1 µM, first compound 3.16 µM) 6.43% | viability, T/C (second compound 0.1 µM, first compound 10 µM) 5.27% | viability, T/C [8] 7.76% | viability, T/C (second compound 0.316 µM, first compound 3.16 µM) 3.89% | viability, T/C (second compound 0.316 µM, first compound 10 µM) 3.47% | viability, T/C [12] 5.48% | viability, T/C (second compound 1 µM, first compound 3.16 µM) 2.03% | viability, T/C (second compound 1 µM, first compound 10 µM) 1.87% | viability, T/C [15] 8.29% | viability, T/C [16] 2.66% | viability, T/C (second compound 3.16 µM, first compound 3.16 µM) 1.51% | viability, T/C (second compound 3.16 µM, first compound 10 µM) 1.34% | viability, T/C [19] 5.7% | viability, T/C [20] 1.72% | viability, T/C (second compound 10 µM, first compound 3.16 µM) 0.91% | viability, T/C (second compound 10 µM, first compound 10 µM) 0.74%
178 nM: IC50 (second compound 0.1 µM)

CNC(C)C(=O)NC1CN(S(=O)(=O)c2cccc(S(=O)(=O)N3CCC4CCC(C(=O)NC(c5ccccc5)c5ccccc5)N4C(=O)C(NC(=O)C(C)NC)C3)c2)CCC2CCC(C(=O)NC(c3ccccc3)c3ccccc3)N2C1=O (stereo not given) + Cc1c(S(C)(=O)=O)c(-c2cc(F)cc(N3CCN(c4ccc(NS(=O)(=O)c5ccc(NC(CCN6CCC(C(=O)OCCCP(=O)(O)O)CC6)CSc6ccccc6)c(S(=O)(=O)C(F)(F)F)c5)cc4)CC3)c2)c(-c2ccc(Cl)cc2)n1C(C)C
> 1000 nM: IC50 (second compound 0.1 µM) | IC50 (second compound 0.316 µM) | IC50 (second compound 1 µM) | IC50 (second compound 3.16 µM) | IC50 (second compound 10 µM)
inactive: viability, T/C (second compound 0.1 µM, first compound 0.00316 µM) 99.7% | viability, T/C (second compound 0.1 µM, first compound 0.01 µM) 108% | viability, T/C [1] 111% | viability, T/C [2] 106% | viability, T/C [3] 101% | viability, T/C [4] 110% | viability, T/C (second compound 0.316 µM, first compound 0.00316 µM) 102% | viability, T/C (second compound 0.316 µM, first compound 0.01 µM) 104% | viability, T/C [5] 102% | viability, T/C [6] 105% | viability, T/C [7] 108% | viability, T/C [8] 110% | viability, T/C (second compound 1 µM, first compound 0.00316 µM) 123% | viability, T/C (second compound 1 µM, first compound 0.01 µM) 114% | viability, T/C [9] 101% | viability, T/C [10] 110% | viability, T/C [11] 110% | viability, T/C [12] 99.5% | viability, T/C (second compound 3.16 µM, first compound 0.00316 µM) 105% | viability, T/C (second compound 3.16 µM, first compound 0.01 µM) 109% | viability, T/C [13] 93.6% | viability, T/C [14] 109% | viability, T/C [15] 110% | viability, T/C [16] 104% | viability, T/C (second compound 10 µM, first compound 0.00316 µM) 93.6% | viability, T/C (second compound 10 µM, first compound 0.01 µM) 103% | viability, T/C [17] 102% | viability, T/C [18] 109% | viability, T/C [19] 101% | viability, T/C [20] 107%

Cc1nc(N2CCC3(CC2)COC(C)C3N)c(CO)nc1Sc1ccnc(N)c1Cl (stereo not given) + Cc1c(S(C)(=O)=O)c(-c2cc(F)cc(N3CCN(c4ccc(NS(=O)(=O)c5ccc(NC(CCN6CCC(C(=O)OCCCP(=O)(O)O)CC6)CSc6ccccc6)c(S(=O)(=O)C(F)(F)F)c5)cc4)CC3)c2)c(-c2ccc(Cl)cc2)n1C(C)C
> 3000 nM: IC50 (second compound 0.1 µM) | IC50 (second compound 0.316 µM) | IC50 (second compound 1 µM) | IC50 (second compound 3.16 µM) | IC50 (second compound 10 µM)
inactive: viability, T/C (second compound 0.1 µM, first compound 0.00949 µM) 112% | viability, T/C (second compound 0.1 µM, first compound 0.03 µM) 99% | viability, T/C (second compound 0.1 µM, first compound 0.0949 µM) 106% | viability, T/C (second compound 0.1 µM, first compound 0.3 µM) 116% | viability, T/C (second compound 0.1 µM, first compound 0.949 µM) 98.1% | viability, T/C (second compound 0.1 µM, first compound 3 µM) 96.1% | viability, T/C (second compound 0.316 µM, first compound 0.00949 µM) 116% | viability, T/C (second compound 0.316 µM, first compound 0.03 µM) 94.9% | viability, T/C (second compound 0.316 µM, first compound 0.0949 µM) 112% | viability, T/C (second compound 0.316 µM, first compound 0.3 µM) 117% | viability, T/C (second compound 0.316 µM, first compound 0.949 µM) 107% | viability, T/C (second compound 0.316 µM, first compound 3 µM) 110% | viability, T/C (second compound 1 µM, first compound 0.00949 µM) 116% | viability, T/C (second compound 1 µM, first compound 0.03 µM) 97.7% | viability, T/C (second compound 1 µM, first compound 0.0949 µM) 114% | viability, T/C (second compound 1 µM, first compound 0.3 µM) 121% | viability, T/C (second compound 1 µM, first compound 0.949 µM) 126% | viability, T/C (second compound 1 µM, first compound 3 µM) 107% | viability, T/C (second compound 3.16 µM, first compound 0.00949 µM) 112% | viability, T/C (second compound 3.16 µM, first compound 0.03 µM) 104% | viability, T/C (second compound 3.16 µM, first compound 0.0949 µM) 111% | viability, T/C (second compound 3.16 µM, first compound 0.3 µM) 115% | viability, T/C (second compound 3.16 µM, first compound 0.949 µM) 111% | viability, T/C (second compound 3.16 µM, first compound 3 µM) 121% | viability, T/C (second compound 10 µM, first compound 0.00949 µM) 97.6% | viability, T/C (second compound 10 µM, first compound 0.03 µM) 96.3% | viability, T/C (second compound 10 µM, first compound 0.0949 µM) 115% | viability, T/C (second compound 10 µM, first compound 0.3 µM) 104% | viability, T/C (second compound 10 µM, first compound 0.949 µM) 100% | viability, T/C (second compound 10 µM, first compound 3 µM) 111%
